Results reported in patent US20240116985A1, “STAPLED PEPTIDES AND METHODS THEREOF” (priority 2020, published 2024).
≈ marks a conversion by molar mass, not a printed value. Like-named read-outs stand apart in the source and are kept apart here.

Key:
Solubility in PBS = assay type: physicochemical
Summary of the method: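 Solubility is derived from HPLC peak areas: the ratio of the PBS supernatant peak to a 50 μM DMSO peptide peak, times 50 uM.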

CHI Log D procedure = assay type: physicochemical; conditions: for chromatographic logD: pH 7.4, CHI Log D; for CHI Log D: pH 7.4
[1] = biological target: T1, full-length B-Catenin (Uniprot ID P35222) (Homo sapiens, UniProt P35222); assay: Alphascreen binding assay (beta-catenin / biotin-TCF4 10-53)
T1 construct: 65 nM full-length B-Catenin (Uniprot ID P35222)
T1 sequence (P35222 1-781): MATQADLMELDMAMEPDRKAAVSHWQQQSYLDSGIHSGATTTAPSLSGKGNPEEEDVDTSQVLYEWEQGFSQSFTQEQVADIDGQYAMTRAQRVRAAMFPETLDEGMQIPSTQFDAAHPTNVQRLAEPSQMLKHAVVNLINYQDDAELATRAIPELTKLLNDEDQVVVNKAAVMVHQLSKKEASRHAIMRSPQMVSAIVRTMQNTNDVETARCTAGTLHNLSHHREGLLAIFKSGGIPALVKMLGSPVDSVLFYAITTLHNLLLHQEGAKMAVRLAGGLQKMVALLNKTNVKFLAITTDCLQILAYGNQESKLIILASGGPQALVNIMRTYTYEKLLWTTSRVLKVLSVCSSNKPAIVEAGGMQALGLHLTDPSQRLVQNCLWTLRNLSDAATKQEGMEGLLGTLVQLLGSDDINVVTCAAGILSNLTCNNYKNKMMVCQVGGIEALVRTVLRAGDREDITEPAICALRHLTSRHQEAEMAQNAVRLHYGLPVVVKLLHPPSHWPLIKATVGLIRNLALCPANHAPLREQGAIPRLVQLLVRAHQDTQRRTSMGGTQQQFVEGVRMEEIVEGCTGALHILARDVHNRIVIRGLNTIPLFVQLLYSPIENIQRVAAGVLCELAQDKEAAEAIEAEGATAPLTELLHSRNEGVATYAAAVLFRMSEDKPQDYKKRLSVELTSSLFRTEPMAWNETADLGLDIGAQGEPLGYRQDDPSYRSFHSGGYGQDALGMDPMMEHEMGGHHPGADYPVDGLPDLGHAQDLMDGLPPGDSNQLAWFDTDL
Summary of the method: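 Final concentrations: 65 nM full-length human β-catenin plus 10 nM biotin-TCF4(10-53) peptide, test peptide 3-fold from 10 uM to 5 nM, preincubated 15 min at 20 °C in Tris pH 8.0/250 mM NaCl buffer. Nickel-chelate AlphaScreen donor/acceptor beads then added for 60 min in the dark; duplicate reads fitted to 1:1 binding model with Hill slope.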

[2] = biological target: T2, full-length beta-Catenin (Uniprot ID P35222) (Homo sapiens, UniProt P35222); assay: Fluorescence polarization IC50 (beta-catenin / 5FAM-TCF4 10-53 competition); assay type: binding
T2 construct: 10 nM full-length beta-Catenin (Uniprot ID P35222)
T2 sequence (P35222 1-781): T1 sequence (P35222 1-781)

[3] = Table E2-1, read-out: beta-Catenin FP IC50
[4] = fluorescence polarization, beta-catenin, read-out: FP EC50

SMILES | solubility at 15 min (Solubility in PBS; Solubility (uM)) [µM] | chromatographic logD (CHI Log D procedure) | EC50 [1] [nM] | Solubility (Solubility in PBS) [µM] | CHI Log D (CHI Log D procedure) | Solubility (Solubility in PBS; Solubility (uM)) [µM] | IC50 [2, 3] [nM] | IC50 [2, 4] [nM]
CC(=O)N[C@@H](Cc1ccccc1)C(=O)N[C@@H](CC(=O)O)C(=O)N[C@@H](C)C(=O)N[C@]1(C)CCCCCCC=CCOC(=O)N2CC[C@@](C(=O)N[C@@H](Cc3ccccc3)C(=O)N[C@@H](Cc3c[nH]c4ccccc34)C(=O)N[C@@H](CCC(N)=O)C(N)=O)(C2)NC(=O)[C@H](C(C)C)NC(=O)[C@H](CC2CCCC2)NC(=O)[C@H](C)NC(=O)[C@H](C)NC(=O)[C@H](CC(=O)O)NC(=O)[C@H](CC(=O)O)NC1=O (single isomer, unassigned) [I-95, Ac-Phe-Asp-Ala-R8-Asp-Asp-Ala-Ala-CypA-Val-PyrS-Phe-Trp-Gln-NH2] | 33 (≈ 59.9 µg/mL) | 1.31 | 8660 |  |  |  |  | 
CCN(CC(=O)O)C[C@@H]1NC(=O)[C@H](CC(=O)O)NC(=O)C2(CCCC=CCCCCCC[C@@](C)(C(=O)N[C@@H](Cc3ccccc3)C(=O)N[C@@H](Cc3c[nH]c4ccccc34)C(=O)N[C@@H](CCC(N)=O)C(N)=O)NC(=O)[C@H](C(C)C)NC(=O)[C@H](Cc3ccccc3)NC(=O)[C@H](C)NC(=O)[C@H](C)NC1=O)CCCC=CC[C@]1(CCCN1C(C)=O)C(=O)N[C@@H](CC(=O)O)C(=O)N[C@@H](C)C(=O)N2 (stereo partly drawn) [I-172, Ac-PL3-Asp-Ala-B5-Asp-EtGA-Ala-Ala-Phe-Val-S8-Phe-Trp-Gln-NH2] |  |  | 324 | 50 (≈ 91.9 µg/mL) | 2.173 |  |  | 
CC(=O)N[C@@H](Cc1ccccc1)C(=O)N[C@@H](CC(=O)O)C(=O)N[C@@H](C)C(=O)N[C@]1(C)CCCCCCC=CCOC(=O)N2CC[C@@](C(=O)N[C@@H](Cc3c(F)c(F)c(F)c(F)c3F)C(=O)N[C@@H](Cc3c[nH]c4ccccc34)C(=O)N[C@@H](CCC(N)=O)C(N)=O)(C2)NC(=O)[C@H](C(C)C)NC(=O)[C@H](Cc2ccccc2)NC(=O)[C@H](C)NC(=O)[C@H](C)NC(=O)[C@H](CC(=O)O)NC(=O)[C@H](CC(=O)O)NC1=O [I-227, Ac-Phe-Asp-Ala-R8-Asp-Asp-Ala-Ala-Phe-Val-PyrS-Pff-Trp-Gln-NH2] |  |  | 5910 | 38 (≈ 72.7 µg/mL) | 1.534 |  |  | 
CC(=O)N[C@@H](Cc1ccccc1)C(=O)N[C@@H](CC(=O)O)C(=O)N[C@@H](C)C(=O)N[C@]1(C)CCCCCCC=CCOC(=O)N2CC[C@@](C(=O)N[C@@H](Cc3c(F)c(F)c(F)c(F)c3F)C(=O)N[C@@H](Cc3c[nH]c4ccccc34)C(=O)N[C@@H](CCC(N)=O)C(N)=O)(C2)NC(=O)[C@H](C(C)C)NC(=O)[C@H](Cc2ccccc2)NC(=O)[C@H](C)NC(=O)[C@H](C)NC(=O)[C@H](CC(=O)O)NC(=O)[C@H](CC(=O)O)NC1=O [I-228, Ac-Phe-Asp-Ala-R8-Asp-Asp-Ala-Ala-Phe-Val-PyrS-Pff-Trp-Gln-NH2] |  |  | 5910 | 38 (≈ 72.7 µg/mL) | 1.534 |  |  | 
CC(=O)N1CCC[C@]12CC=CCCCC1(CCCC=CCCCCCC[C@@](C)(C(=O)N[C@@H](Cc3ccccc3)C(=O)N[C@@H](Cc3c[nH]c4ccccc34)C(=O)N[C@@H](CCC(N)=O)C(N)=O)NC(=O)[C@H](C(C)C)NC(=O)[C@H](Cc3ccccc3)NC(=O)[C@H](C)NC(=O)[C@H](C)NC(=O)C(Cc3cccc4cc(F)ccc34)NC(=O)[C@H](CC(=O)O)NC1=O)NC(=O)[C@H](C)NC(=O)[C@H](CC(=O)O)NC2=O (stereo partly drawn) [I-256, Ac-PL3-Asp-Ala-B5-Asp-6F1NapA-Ala-Ala-Phe-Val-S8-Phe-Trp-Gln-NH2] |  | 3.1 | 9210 | 10 (≈ 18.8 µg/mL) |  |  |  | 
CC(=O)N1CCC[C@]12CC=CCCCC1(CCCC=CCCCCCC[C@@](C)(C(=O)N[C@@H](Cc3ccccc3)C(=O)N[C@@H](Cc3c[nH]c4ccccc34)C(=O)N[C@@H](CCC(N)=O)C(N)=O)NC(=O)[C@H](C(C)C)NC(=O)[C@H](Cc3ccccc3)NC(=O)[C@H](C)NC(=O)[C@H](C)NC(=O)[C@H](CCc3ccc(O)cc3)NC(=O)[C@H](CC(=O)O)NC1=O)NC(=O)[C@H](C)NC(=O)[C@H](CC(=O)O)NC2=O (stereo partly drawn) [I-273, Ac-PL3-Asp-Ala-B5-Asp-hTyr-Ala-Ala-Phe-Val-S8-Phe-Trp-Gln-NH2] |  | 2.74 | 1890 | 10 (≈ 18.4 µg/mL) |  |  |  | 

Further lines, results first:

solubility at 15 min (Solubility in PBS; Solubility (uM)) [µM] | chromatographic logD (CHI Log D procedure) | EC50 [1] [nM] | Solubility (Solubility in PBS) [µM] | CHI Log D (CHI Log D procedure) | Solubility (Solubility in PBS; Solubility (uM)) [µM] | IC50 [2, 3] [nM] | IC50 [2, 4] [nM] | SMILES
 | 2.08 | 4000 |  |  | 47 (≈ 84.4 µg/mL) |  |  | CC(=O)N1CCC[C@]12CC=CCCCC1(CCCC=CCCCCCC[C@@](C)(C(=O)N[C@@H](CCc3ccccc3)C(=O)N[C@@H](Cc3c[nH]c4ccccc34)C(=O)N[C@@H](CCC(N)=O)C(N)=O)NC(=O)[C@H](C(C)C)NC(=O)[C@H](Cc3ccccc3)NC(=O)[C@H](C)NC(=O)[C@H](C)NC(=O)[C@H](CC(=O)O)NC(=O)[C@H](CC(=O)O)NC1=O)NC(=O)[C@H](C)NC(=O)[C@H](CC(=O)O)NC2=O (stereo partly drawn) [I-268, Ac-PL3-Asp-Ala-B5-Asp-Asp-Ala-Ala-Phe-Val-S8-hPhe-Trp-Gln-NH2]
 | 2.62 | 2350 | 10 (≈ 18.3 µg/mL) |  |  |  |  | CC(=O)N1CCC[C@]12CC=CCCCC1(CCCC=CCCCCCC[C@@](C)(C(=O)N[C@@H](Cc3ccccc3)C(=O)N[C@@H](Cc3c[nH]c4ccccc34)C(=O)N[C@@H](CCC(N)=O)C(N)=O)NC(=O)[C@H](C(C)C)NC(=O)[C@H](Cc3ccccc3)NC(=O)[C@H](C)NC(=O)[C@H](C)NC(=O)[C@H](Cc3ccc(O)cc3)NC(=O)[C@H](CC(=O)O)NC1=O)NC(=O)[C@H](C)NC(=O)[C@H](CC(=O)O)NC2=O (stereo partly drawn) [I-274, Ac-PL3-Asp-Ala-B5-Asp-Tyr-Ala-Ala-Phe-Val-S8-Phe-Trp-Gln-NH2]
 |  | 6800 | 45 (≈ 82.4 µg/mL) | 2.186 |  |  |  | CC(=O)N1CCC[C@]12CC=CCCCC1(CCCC=CCCCCCC[C@@](C)(C(=O)N[C@@H](Cc3ccc4ccccc4c3)C(=O)N[C@@H](Cc3c[nH]c4ccccc34)C(=O)N[C@@H](CCC(N)=O)C(N)=O)NC(=O)[C@H](C(C)C)NC(=O)[C@H](Cc3ccccc3)NC(=O)[C@H](C)NC(=O)[C@H](C)NC(=O)[C@H](CC(=O)O)NC(=O)[C@H](CC(=O)O)NC1=O)NC(=O)[C@H](C)NC(=O)[C@H](CC(=O)O)NC2=O (stereo partly drawn) [I-277, Ac-PL3-Asp-Ala-B5-Asp-Asp-Ala-Ala-Phe-Val-S8-2NapA-Trp-Gln-NH2]
 |  | 54 |  | 2.019 |  | 1420 | 1420 | CC(=O)N1CCC[C@]12CC=CCCCC1(CCCC=CCCCCCC[C@@](C)(C(=O)N[C@@H](Cc3ccccc3F)C(=O)N[C@@H](Cc3c[nH]c4ccccc34)C(=O)N[C@@H](CCC(N)=O)C(N)=O)NC(=O)[C@H](C(C)C)NC(=O)[C@H](Cc3ccccc3)NC(=O)[C@H](C)NC(=O)[C@H](C)NC(=O)[C@H](CC(=O)O)NC(=O)[C@H](CC(=O)O)NC1=O)NC(=O)[C@H](C)NC(=O)[C@H](CC(=O)O)NC2=O (stereo partly drawn) [I-319, Ac-PL3-Asp-Ala-B5-Asp-Asp-Ala-Ala-Phe-Val-S8-2FF-Trp-Gln-NH2]
 |  | 92 |  | 1.953 |  | 3470 | 3470 | CC(=O)N1CCC[C@]12CC=CCCCC1(CCCC=CCCCCCC[C@@](C)(C(=O)N[C@@H](Cc3ccccc3)C(=O)N[C@@H](Cc3c[nH]c4ccccc34)C(=O)N[C@@H](CCC(N)=O)C(N)=O)NC(=O)[C@H](C(C)C)NC(=O)[C@H](Cc3ccc(N)cc3)NC(=O)[C@H](C)NC(=O)[C@H](C)NC(=O)[C@H](CC(=O)O)NC(=O)[C@H](CC(=O)O)NC1=O)NC(=O)[C@H](C)NC(=O)[C@H](CC(=O)O)NC2=O (stereo partly drawn) [I-323, Ac-PL3-Asp-Ala-B5-Asp-Asp-Ala-Ala-4AmPhe-Val-S8-Phe-Trp-Gln-NH2]
 | 1.98 | 53 |  |  |  | 1310 |  | CC(=O)N1CCC[C@]12CC=CCCCC1(CCCC=CCCCCCC[C@@](C)(C(=O)N[C@@H](Cc3ccccc3)C(=O)N[C@@H](Cc3c[nH]c4ccccc34)C(=O)N[C@@H](CCC(N)=O)C(N)=O)NC(=O)[C@H](C(C)C)NC(=O)[C@H](Cc3cccs3)NC(=O)[C@H](C)NC(=O)[C@H](C)NC(=O)[C@H](CC(=O)O)NC(=O)[C@H](CC(=O)O)NC1=O)NC(=O)[C@H](C)NC(=O)[C@H](CC(=O)O)NC2=O (stereo partly drawn) [I-325, Ac-PL3-Asp-Ala-B5-Asp-Asp-Ala-Ala-2Thi-Val-S8-Phe-Trp-Gln-NH2]
